{"source": "patent US20230189790A1", "about": "“NON-FREEZING REFRIGERATED STORAGE LIQUID FOR STEM CELLS” (BIOVERDE INC., priority 2019, published 2023)", "key": {"[1]": {"system": "mouse blastocyst stage embryos", "assay": "Refrigerated storage of mouse embryos: escape from the zona pellucida", "format": "cell-based, mouse (ICR)", "details": "14 µM to 140 µM; low temperature storage for 5 days and 7 days", "procedure": "On the other hand, in order to try non-freezing refrigerated storage of mouse embryos (FIGS. 10 to 11), in vitro fertilization was performed by ova and sperms from female and male mice (both ICR), and then embryos were cultured for 3.5 days (84 hours). Here, HTF (Fuji Film Wako Pure Chemical Industries, Ltd.) was used as the medium for insemination, and KSOM (Arc Resource) was used for culturing.\nAs described above, a blastocyst stage embryo 3.5 days after in vitro fertilization was immediately used as it was, and a refrigerated storage experiment was conducted. Specifically, for this blastocyst stage embryo, the medium was replaced with the HTM-alpha, HTM1, and HTS FRS as used in the above “11.” and the UW solution, in respective experiments. […] Both of HTM-alpha and HTM1 here are obtained by adding 5 mM Trolox and 5-fold concentration (x5; 10 mM) GlutaMAX (registered trademark) in the same manner as in “11.” above.\nNext, the effect of adding adenine hydrochloride (Tokyo Kasei) was investigated in the same manner as in FIGS. 7E to 7F. That is, under the same conditions as in the experiment of FIG. 10, the rate of embryos that escaped the zona pellucida when Adenine hydrochloride (Tokyo Kasei) was added at each concentration was determined."}, "human iPS cells [2]": {"system": "human iPS cells", "assay": "Refrigerated storage in adhesive state (1): proliferation on recultivation for 4 days", "format": "cell-based", "procedure": "Human iPS cells obtained in the same manner as in “1.” above were used. However, at the final stage of culturing, the cells were seeded at a slightly lower concentration (1.0E3/cm^2) than the maintenance culture of “1.” above, and the day after this seeding, culture medium was replaced by StemFit® A[…] medium containing no Y27362. Then, the medium was removed 4 days after the seeding. Subsequently, the medium was replaced with HTM1 which is for the non-freezing refrigerated storage, and the medium with the cells was left to stand for 3 or 6 days under 4° C. In other words, in a state the cells were aggregated and adhered to each other, the cells were stored in non-freezing refrigerated condition for 3 days or 6 days. Trolox was added to HTM1, which is the medium for refrigerated storage. […] A UW solution (BELZER UW (registered trademark) COLD STORAGE LIQUID) was also used as the refrigerated storage medium of the comparative example. The cells after the non-freezing refrigerated storage were lightly washed with culture medium after the refrigerated storage medium were removed. Then, StemFit® A[…] medium was added and culturing was made for 4 days. At the end of this culturing, cells were enzymatically detached (by using 0.5X TrypLE® Select), and dispersed so that number of viable cells are counted. Then, it was compared with the number of cells at the start of refrigerated storage. In addition, after taking a phase difference image at the end and start of the culturing, image processing was performed with ImageJ to extract and binarize the colony area, and the colony area was measured to evaluate the proliferative ability. The above experiment was aimed at developing a refrigerated storage method in a state iPS cells were adhered, and proliferative ability (colony forming ability) subsequent to culturing for 4 days after the non-freezing refrigerated storage for 3 or 6 days. FIGS. 7A-7B show images of colonies obtained by the […] for 4 days after 3 days of the refrigerated storage, and FIGS. 7C-7D show images of colonies obtained by recultivation for 4 days after he refrigerated storage for 6 days. Here, FIGS. 7A and 7C are phase differentiation images, and binarized images of these are shown in FIGS. 7B and 7D, respectively. […] Further, in the bar graphs of FIGS. 7F and 8, the rate of increase in the number of colonies when recultivated for 4 days after the refrigerated storage for 3 days and 6 days. In the graph, the rate for a control, which is for cell not subjected to the refrigerated storage, is taken as “1” or 100%."}, "[3]": {"system": "human iPS cell line (253G1)", "assay": "Non-freezing refrigerated storage in single cell state at 4° C., survival rate by trypan blue", "format": "cell-based", "details": "for effect of antioxidant/radical scavenger on ST80 (ranking): added to HTM1 at various concentrations; for 80% survival-rate maintenance days (ST80): single cell state, 4° C.", "from_the_text": "A healthy human-derived human iPS cell line (253G1) obtained from the Center for iPS Cell Research and Application, Kyoto University was maintained and cultured under feeder-free conditions. For this culture, StemFit (registered trademark) AK02N (Ajinomoto), which is a commercially available medium for clinical research for human ES/iPS cells was used. When the cells reached 70-80% confluence on the 7th day after the start of the culture, the cells were enzymatically stripped off from a container by using 0.5X TrypLE® Select, and then dispersed and washed. Subsequently, the cells were suspended in a new StemFit® AK02N medium containing 10 µM Y27362 (Fujifilm Wako Pure Chemical Industries, Ltd.) as a ROCK inhibitor, and added with iMatrix-511 (MATRIXOME, Inc.) as a further cell culture substrate at 0.1 µg/cm^2. Then, the cells were seeded at a concentration of 1.3E3/cm^2 (1.3 ×10^3/cm^2). The day after the seeding, the medium was replaced with StemFit® AK02N medium containing no Y27362, then the medium was replaced every 3 days and subcultured or tested on day 7.\nThe human iPS cells obtained in “1.” above are added into the refrigerated storage liquids HTM1 and HTM2 in “2.” above to be suspended at 1E6 cells/mL (number of floating cells 1x10^6 cells/mL) in a cell state. Then, the suspensions were placed into a plastic tube and allowed to stand at 4° C. for storage. The survival rate was determined by counting the number of living cells after staining with trypan blue.\nThe statistical processing in the examples of the present application was performed as follows. The survival rate maintenance curves in FIGS. 1A and 2B were obtained by using “R ver 3.5.1” to fit the four-variable logistic curve. The 1way ANOVA and Bonferoni and Dunnetts tests were calculated using “Graphpad Prism 5.04”.\nAntioxidants or radical scavengers were added to HTM1 at various concentrations and subjected to the non-freezing refrigerated storage test as described in “3.” above. The added antioxidants or radical scavengers are shown in FIG. 5A and are: Trolox (Trx, Wako), EGCG (Teavigo®, DSM), N-acetylcysteine (NAC, Tokyo Kasei), L-ascorbic acid (AA, WAKO)), and edaravone (3-Methyl-1-phenyl-2-pyrazoline-5-one, Sigma)."}, "human iPS cells [4]": {"system": "human iPS cells", "assay": "Colony forming ability (relative colony efficiency) after refrigerated storage for 6 days and culturing for 5 days", "format": "cell-based", "details": "6 days storage, 5 days culturing", "procedure": "The cell proliferation ability after non-freezing refrigerated storage was verified as follows. First, the human iPS cells obtained in the above “1.” were placed into the refrigerated storage liquid HTM1 of the above “2.” and stored in the non-freezing refrigerated state for 6 days as in the above “3.”. The cells were then suspended in StemFit® AK02N medium containing 10 µM Y27362, into which iMatrix-511 was added by 0.1 µg/cm^2. and seeded at a concentration of 1.3E3/cm^2. On 5th day of culturing, the cells were stained with fixed alkaline phosphatase, and then the number of colonies formed to a certain size or larger was measured using a colony counter. The number of colonies when cultured for 5 days without being subjected to the refrigerated storage was similarly measured and used as a control. Then, the number of colonies obtained by culturing for 5 days after the refrigerated storage was divided by the number of colonies in this control to obtain colony forming ability (Relative colony efficiency).\nNext, in order to verify the proliferative ability after refrigerated storage and recultivation, cells having been stored in the refrigerated state for 6 days were seeded in the same manner as in “4.” above, and the colony forming ability on the 5th day of culturing was compared. […] This obtained value was almost the same as that of the customary conventional slow-cooling cryoprerservation method placing the cell suspension in a freezer at -80° C."}, "human iPS cells [5]": {"system": "human iPS cells", "assay": "Relative survival rate after 6 days of refrigerated storage and 1 day of recovery culturing", "format": "cell-based", "details": "for effectiveness in refrigerated storage (relative survival rate): 0.04 mM to 5.0 mM added to HTM-alpha without trolox and GlutaMAX, compared with trolox 2.0 mM", "procedure": "The HTM-alpha (UW solution + MEM-alpha, 2: 1) described in “2.” above, which has not been added with trolox and GlutaMAX (registered trademark, GIBCO), is used in FIGS. 6A and 2A. The effect of the addition of tocopherol (vitamin E) and tocopherol acetate (vitamin E derivative) in the non-freezing refrigerated storage was investigated by the same procedure as in case of trolox addition in the above. Tocopherol and tocopherol acetate were added so as to become 0.04 mM to 5.0 mM in the same manner as the trolox addition, and refrigerated storage was performed. At this time, a sample to which trolox at 2.0 mM, which is a water-soluble vitamin E analog, was added was also tested at the same time. FIG. 6D summarizes the relative survival rates after 6 days of the storage and 1 day of recovery cultivation.\nHere, the effect of adding polyvinyl alcohol (PVA) instead of hydroxyethyl starch (HES) was investigated. Here, the composition of the UW solution shown in Table 1 above, excluding hydroxyethyl starch (HES), was adopted. Thus, the other components are same with those in the HTM-alpha (UW solution + MEM-alpha, 2: 1) while polyvinyl alcohol (PVA) in the range of 0.25% to 2.5% (weight) were added in the storage liquids used here. The cell viability was evaluated in the same manner as in the case of FIG. 6D above. That is, the protective effect of polyvinyl alcohol (PVA) was examined by the same procedure as in FIGS. 6A and 2A. At this time, a sample having a hydroxyethyl starch (HES) concentration of 5% (weight) was also tested at the same time. FIG. 12A summarizes the relative survival rates after 6 days of the refrigerated storage and 1 day of recovery culturing. […] It should be noted that polyvinyl alcohol (PVA) is cheaper than hydroxyethyl starch (HES), and is considered to be safer for living tissues.\nNext, in the same manner as in “13.” above, mannitol was added together with polyvinyl alcohol (PVA), and the synergistic effect was verified. […]"}, "[6]": {"details": "additive 5 mM in HTM1, listed as trolox"}}, "data": [{"compound": "Cl.Nc1ncnc2nc[nH]c12", "note": "[Adenine, adenine hydrochloride]", "values": [{"measurement": "zona pellucida escape rate", "setting": "[1]", "result": "relatively high zona pellucida escape rate"}, {"measurement": "proliferation rate at recultivation", "setting": "human iPS cells [2]; 2.8 mM and 4.2 mM in HTM1 with Trolox 5 mM, storage 6 days", "result": "significantly increased"}, {"measurement": "growth rate at recultivation", "setting": "human iPS cells [2]; 8.2 mM in HTM1 with Trolox 5 mM, storage 6 days", "result": "decreased the growth rate"}]}, {"compound": "O=C(O[C@@H]1Cc2c(O)cc(O)cc2O[C@@H]1c1cc(O)c(O)c(O)c1)c1cc(O)c(O)c(O)c1", "note": "[EGCG]", "values": [{"measurement": "effect of antioxidant/radical scavenger on ST80 (ranking)", "setting": "[3]", "result": "third highest effect"}]}, {"compound": "CC1=NN(c2ccccc2)C(=O)C1", "note": "[Edaravone, 3-Methyl-1-phenyl-2-pyrazoline-5-one]", "values": [{"measurement": "effect of antioxidant/radical scavenger on ST80 (ranking)", "setting": "[3]", "result": "second highest effect"}]}, {"compound": "O=C1O[C@H]([C@@H](O)CO)C(O)=C1O", "note": "[L-Ascorbic Acid, L-ascorbic acid]", "values": [{"measurement": "effect of antioxidant/radical scavenger on ST80 (ranking)", "setting": "[3]", "result": "did not show much effect"}]}, {"compound": "CC(=O)N[C@@H](CS)C(=O)O", "note": "[N-acetylcysteine]", "values": [{"measurement": "effect of antioxidant/radical scavenger on ST80 (ranking)", "setting": "[3]", "result": "third highest effect"}]}, {"compound": "Cc1c(C)c2c(c(C)c1O)CCC(C)(C(=O)O)O2", "note": "(stereo not drawn) [Trolox]", "values": [{"measurement": "cell proliferation rate at recultivation compared with control not refrigerated", "setting": "human iPS cells [2]; 5 mM added into HTM1, storage 3 days", "result": "almost the same value as that in the control"}, {"measurement": "cell proliferation rate at recultivation relative to control not refrigerated", "setting": "human iPS cells [2]; 5 mM added into HTM1, storage 6 days", "result": "about 10%"}, {"measurement": "ST80 compared with HTM1 with no trolox added", "setting": "[3]; 0.5 mM or more added to HTM1", "result": "significantly higher"}, {"measurement": "ST80, dependence on addition concentration", "setting": "[3]; added to HTM1, concentration varied", "result": "increase approximately with increasing trolox concentrations"}, {"measurement": "effect of antioxidant/radical scavenger on ST80 (ranking)", "setting": "[3]", "result": "most effective"}, {"measurement": "survival rate maintenance days (ST80) as multiple of HTM1 alone", "setting": "[3]; additive 5 mM in HTM1", "result": "about 4 times"}, {"measurement": "survival rate maintenance days (ST80) as multiple of UW solution", "setting": "[3]; additive 5 mM in HTM1", "result": 9.5, "unit": "times"}, {"measurement": "survival rate maintenance days (ST80) as multiple of HTM1 alone", "setting": "[3]; [6]", "result": 4.4, "unit": "times"}, {"measurement": "80% survival-rate maintenance days (ST80)", "setting": "[3]; additive 5 mM in HTM1", "result": "≥ 20", "unit": "days"}, {"measurement": "80% survival-rate maintenance days (ST80)", "setting": "[3]; [6]", "result": 20.11, "unit": "days"}, {"measurement": "colony forming ability as multiple of HTM1 alone", "setting": "human iPS cells [4]; 5.0 mM added to HTM1", "result": "about twice"}, {"measurement": "colony forming ability relative to control not subjected to refrigerated storage", "setting": "human iPS cells [4]; 5.0 mM added to HTM1", "result": 41.2, "unit": "%"}, {"measurement": "colony forming ability as multiple of HTM1 alone", "setting": "human iPS cells [4]; 5.0 mM added to HTM1, listed as trolox", "result": 2.3, "unit": "times"}, {"measurement": "colony forming ability, dependence on concentration", "setting": "human iPS cells [4]; added to HTM1", "result": "increased depending on the concentration of trolox"}]}, {"compound": "OC[C@@H](O)[C@@H](O)[C@H](O)[C@H](O)CO", "note": "[mannitol]", "values": [{"measurement": "viability of the cells after refrigerated storage", "setting": "human iPS cells [5]; 30 mM to 90 mM together with 0.5% PVA in HTM-alpha without HES, compared with 5% HES", "result": "higher"}]}, {"compound": "CC(=O)Oc1c(C)c(C)c2c(c1C)CCC(C)(CCC[C@H](C)CCC[C@H](C)CCCC(C)C)O2", "note": "(stereo partly drawn) [tocopherol acetate]", "values": [{"measurement": "effectiveness in refrigerated storage (relative survival rate)", "setting": "human iPS cells [5]", "result": "less effective in refrigerated storage than trolox"}]}, {"compound": "tocopherol", "values": [{"measurement": "effectiveness in refrigerated storage (relative survival rate)", "setting": "human iPS cells [5]", "result": "less effective in refrigerated storage than trolox"}]}]}
